In patent publication US10869493B2, “Reduced-sweetener products, flavoring mixtures for said reduced-sweetener products and process for the production of products of this type” (SYMRISE AG, priority 2009, dated 2020):

Key:
panelists = experiment: Determination of the sucrose equivalence using a comparative series of sucrose concentrations in water; type: in vivo, human; conditions: concentration used in preparation C (1 ppm), method of Application example 1, first part
Source text: The sucrose equivalence ratio of the sucrose equivalence of the concentration of the substances or substance of group (i) to the sucrose equivalence of the concentration of the substance or substances of group (ii) in the corresponding flavoring mixture (and in other mixtures, cf. further below), is established as follows: • 1. A comparative series of different sucrose concentrations in water is produced. Preferred concentrations are 0; 0.25; 0.5; 0.75; 1; 1.5; 2; 3; 4 and 5% by weight sucrose in water. Other concentrations, in particular higher concentrations, can optionally also be used for the comparative series. • 2. […] The determined sucrose equivalence is produced from the average of individual gradings by the individual panelists. • 6. The dilution ratio is then determined, using which solution 1 can be set at a sucrose equivalence of 2% by weight sucrose in water. […] It is of course sensible to have the determined dilution ratio tested once more by the panelists. • 7. Solution 2 (containing the compound(s) of group (ii)) is then diluted in the dilution ratio determined under 6. • 8. Subsequently, the dilute solution 2 is also tasted and compared to the sucrose test series, graded by the panelists and a corresponding sucrose equivalence value is determined (analogously to points 4. and 5.). • 9. […]

[1] = Stability of phyllodulcin content under elevated thermal stress (HPLC, UV detection); type: physicochemical; conditions: 100 mg/l phyllodulcin in aqueous phosphate buffer pH 9, stored at 40° C., compared to the same quantity as extract
Method: The exemplary extract was tested for stability under an elevated thermal stress in comparison to pure phyllodulcin. A solution of 100 mg/l of phyllodulcin and 1.38% of the exemplary ethanolic extract (corresponds to 100 mg of phyllodulcin) in an aqueous phosphate buffer, adjusted to pH 9, was tested immediately after preparation and then at regular weekly intervals for its phyllodulcin content. In this respect, an aliquot of the respective test solution was separated in an HPLC installation (RP phase) and quantified by UV detection compared to a calibration with pure phyllodulcin. The samples were stored at 40° C. in closed glass vessels to prevent evaporation. The phyllodulcin contents of the test solutions are plotted against time in FIG. 1.

SMILES	sucrose equivalence alone in water (panelists)	Decomposition of phyllodulcin over time (FIG. 1) [1]
COc1ccc(CCC(=O)c2c(O)cc(O[C@@H]3O[C@H](CO)[C@@H](O)[C@H](O)[C@H]3O[C@@H]3O[C@@H](C)[C@H](O)[C@@H](O)[C@H]3O)cc2O)cc1O [neohesperidin dihydrochalcone]	approximately 0.5%	
COc1ccc([C@H]2Cc3cccc(O)c3C(=O)O2)cc1O [phyllodulcin]		decomposed more rapidly
